system: PAF-induced aggregation of human thrombocytes; experiment: Inhibition of PAF-induced blood platelet aggregation in vitro; type: cell-based; conditions: human thrombocyte-rich plasma, aggregation induced with PAF 5×10^-8 M, concentration giving 50% inhibition of aggregation, read-out: PAF-Antag. IC50
Description: 1. Inhibition of blood platelet aggregation in vitro
The PAF-induced aggregation of human thrombocytes in vitro is used to determine PAF-antagonistic activity. To obtain thrombocyte-rich plasma (TRP), blood is taken from an uncongested vein using a plastic syringe containing 3.8% sodium citrate solution. The ratio of sodium citrate solution to blood is 1:9. After careful mixing the citrate blood is centrifuged for 20 minutes at 150 g (1200 rpm). The thrombocyte aggregation is measured using the method devised by Born and Cross (G. V. R. Born and M. J. Cross, J. Physiol. 168, 178 (1963)), by adding an aggregation initiator (PAF) to the TRP with constant stirring.
The test substance is added 2 to 3 minutes before aggregation is initiated in a volume of 10 μl. Either distilled water, ethanol and/or dimethylsulphoxide (each in suitable concentrations) can be used as solvent.
Control mixtures contain corresponding volumes of these solvents. After the initial absorption has been recorded (2 to 3 minutes) aggregation is induced with PAF (5×10^-8 M).
The maximum of the first aggregation wave is used to assess the effects of the substance. The PAF-induced maximum absorption rate (=maximum aggregation×100%) is tested at the same time in a parallel mixture (=control mixture in one of the channels of the two-channel aggregometer) as each test mixture (second channel) and is used as a 100% value.
The aggregation value attained under the effect of the test substance is given as a percentage of the control value, i.e. less than 100% in the case of an inhibition of aggregation and over 100% in the case of an increase.
Each test substance is investigated at concentrations of from 10^-3 to 10^-8 M with a random sampling of n=4 with regard to an inhibitory effect on the PAF-induced thrombocyte aggregation. Then a concentration-activity curve is drawn up using 3 concentrations and the IC50 is determined (concentration giving a 50% inhibition of aggregation).

Structure (SMILES)	IC50 [µM]
CC1C(=O)Nc2ccc(Br)cc2N(c2ccccc2)C1=O (centres unmarked) [Compound 12]	350
CN1C(=O)CC(=O)N(c2ccccc2)c2cc(Cl)ccc21 [Compound 1, Clobazam, reference compound]	250
CN1C(=O)CC(=O)N(c2ccccc2)c2cnccc21 [Compound 16]	> 50
CN1C(=O)CC(=O)N(c2ccccc2F)c2ccccc21 [Compound 7]	96
CN1C(=O)CC(=O)N(c2ccccn2)c2cc(Br)ccc21 [Compound 9]	> 1000
COc1ccccc1N1C(=O)CC(=O)N(C)c2ccc(Cl)cc21 [Compound 8]	290
CCN1CCC(=O)N(c2ccccc2)c2cnccc21 [Compound 15]	> 100
CN1C(=O)CC(=O)N(c2ccccc2Cl)c2cc([N+](=O)[O-])ccc21 [Compound 10]	310
CCN1C(=O)CC(=O)N(c2ccccc2)c2cc(Cl)ccc21 [Compound 4]	98
CN1C(=O)CC(=O)N(c2ccccc2)c2cc(C(F)(F)F)ccc21 [Compound 2, Triflubazam, reference compound]	200
CN1C(=O)CC(=O)N(c2ccccc2)c2ccc(Cl)cc21 [Compound 11]	210
CN1C(=O)CC(=O)N(c2ccccc2C(F)(F)F)c2cc(Cl)ccc21 [Compound 6]	66
O=C1CC(=O)N(c2ccccc2)c2cc(Br)ccc2N1	470
CCn1nc(C)c2c1N(c1ccccc1)C(=O)CC(=O)N2 [Compound 17]	> 100
O=C1CCN(CCO)c2ccc(Cl)cc2N1c1ccccc1 [Compound 14]	285
CN1CCC(=O)N(c2ccccc2)c2cc(Br)ccc21 [Compound 13]	> 1000
CN1C(=O)CC(=O)N(c2ccccc2Cl)c2cc(Cl)ccc21 [Compound 5]	220

— patent US4622319A, “Methods of using PAF-antagonistic diazepines” (Boehringer Ingelheim KG, priority 1984, dated 1986)
